# Patent US20220267270A1, “STING MODULATORS, COMPOSITIONS, AND METHODS OF USE” (University of South Florida, priority 2019, published 2022)
# Legend:
# [1] = molecular target: His-labeled STING (hSTING) (Homo sapiens, UniProt Q86WV6); experiment: Microscale thermophoresis (MST) binding assay; settings: for direct binding to hSTING by MST: FIG. 4
# Protocol: Nanotemper Monolith NT.115 labeled thermophoresis machine was used with standard treated capillary tubes using samples comprised of labeled protein and titrations of small molecule in 1×PBS. […] Detection of the protein was performed using the blue detection channel with LED excitation power set to 90% and MST set to high allowing 3 s prior to MST on to check for initial fluorescence differences, 25 s for thermophoresis, and 3 s for regeneration after MST off.
# [2] = molecular target: His-tagged human STING CDN domain (Homo sapiens, UniProt Q86WV6); experiment: Surface Plasmon Resonance (SPR) binding; settings: steady state
# Protocol: SPR was employed for binding measurements using His-tagged human STING CDN domain. A GE Healthcare Biacore T200 was equipped with an Ni-NTA chip. […] The sensorgrams were analyzed using Biacore T200 Software 3.0 (GE Healthcare) and steady state was measured at 4 sec before injection stop, exported into Graphpad, and fit vs concentration using a one site specific binding model to calculate the apparent equilibrium dissociation constant (KD). Where appropriate, kinetics were measured using a 1:1 Langmuir binding model with Rmax set to local to obtain the association rate (Kon), dissociation (Koff), and the KD.
# hSTING = hSTING (Homo sapiens, UniProt Q86WV6); settings: native ligand, literature ITC value used for model validation; read-out: ITC binding energetics (KD); cited from earlier work
# [3] = test system: STING-induced IRF3 expression; experiment: Competition of 335504 with agonist 2,3-cGAMP in THP-1 cells; format: cell-based, human
# Source text: FIG. 6 depicts the effect of various concentrations of 335504 and known agonist 2,3-cGAMP on luminescence measured from THP-1 monocytic leukemia cells. […] This effect, however, is not seen at higher concentrations due to the synergistic effect of the compounds on the IFN-β signaling pathway in these cells.
# [4] = test system: STING pathway (interferon stimulated genes, IRF3 promoter); experiment: Luciferase reporter assay in THP1-ISG-Lucia cells
# Protocol: To maintain selection pressure, 10 μg/ml of blasticidin and 100 μg/ml of Zeocin™ was added to the growth medium every other passage.
# For compounds, 10 mM stock solution in 100% DMSO was diluted 1:4 with ultrapure Milli Q water. For the positive control, 1 mM stock solution in 100% Milli Q H2O was diluted 3:1 with water. 50 μL of QUANTI-Luc™ luminesence assay reagent (Invivogen) was added after 18-24 h incubation period. Expression of Lucia luciferase was quantified by measuring luminescence from duplicate treatments. Data illustrated were average luminescence changes shown relative to DMSO-treated cells.
# For compounds, 10 mM stock solution in 100% DMSO was diluted 1:4 with ultrapure Milli Q water. For the positive control, 1 mM stock solution in 100% Milli Q H2O was diluted 3:1 with water. 50 μL of QUANTI-Luc™ luminesence assay reagent (Invivogen, San Diego, Calif., USA) was added after 18-24 h incubation period. Expression of Lucia luciferase was quantified by measuring luminescence from duplicate treatments. Data illustrated are average luminescence changes shown relative to DMSO-treated cells. A Glowmax luminometer (Promega, Madison, Wis., USA) was used. QUANTI-Luc™ was prepared following the manufacturer's instructions. 10 μl of THP1-Dual™ KI-hSTING-R232 cell culture supernatant was pipetted into each well in a 96-well white (opaque) plate. 50 μl of QUANTI-Luc™ was added to each well. The measurement was then immediately taken using a 4 sec incubation time and integrating over 1 sec.
# A luciferase assay utilizing monocytic leukemia THP-1 cells was carried out to determine the upregulation of the IRF3 promoter gene as a downstream indicator of STING pathway activation.
# FIG. 4C depicts a plot of luminescence vs. log of concentration of a luciferase assay utilizing monocytic leukemia THP-1 cells that was carried out to determine the regulation of interferon stimulated genes (ISG).
# Chain of His-labeled STING (hSTING) (Q86WV6 153-340 H232R limits assumed): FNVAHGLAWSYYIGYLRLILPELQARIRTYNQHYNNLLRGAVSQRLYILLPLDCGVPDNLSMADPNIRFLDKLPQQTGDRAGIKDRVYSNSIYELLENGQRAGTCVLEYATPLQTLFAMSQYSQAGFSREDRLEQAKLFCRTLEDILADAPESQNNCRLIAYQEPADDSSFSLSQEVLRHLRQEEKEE
# Chain of His-tagged human STING CDN domain (Q86WV6 153-340 H232R limits assumed): as above
# Chain of hSTING (Q86WV6 139-379 H232R limits assumed): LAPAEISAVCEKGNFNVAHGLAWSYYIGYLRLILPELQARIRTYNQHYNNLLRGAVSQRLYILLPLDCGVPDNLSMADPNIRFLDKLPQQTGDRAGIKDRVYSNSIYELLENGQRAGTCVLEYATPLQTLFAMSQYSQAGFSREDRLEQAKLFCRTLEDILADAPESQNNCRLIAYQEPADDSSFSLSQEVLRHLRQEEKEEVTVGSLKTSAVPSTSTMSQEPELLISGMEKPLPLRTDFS
Structure (SMILES),direct binding to hSTING by MST [1],Kd [2],Kd (hSTING),"IC50 ([3]; Homo sapiens, THP-1 monocytic leukemia cells, with agonist 2,3-cGAMP, FIG. 7)","competition with 2,3-cGAMP (luminescence) ([3]; single to double digit concentrations of 335504, FIG. 6)",Kd ([1]; rough initial estimate of binding affinity),"ISG output (luminescence) vs DMSO blank ([4]; 3 μM, FIG. 2)","effect on cells at higher concentrations ([4]; >20 μM, DMSO percentages increased)","EC50 ([4]; Homo sapiens, THP-1, read-out: luciferase assay EC50)","effect in luciferase assay compared to 2,3-cGAMP ([4]; THP-1 cells)","increase in Luciferase activity compared to the blank ([4]; THP-1 cells, FIG. 4)"
Nc1nc2c(ncn2[C@@H]2O[C@@H]3COP(=O)(O)O[C@H]4[C@@H](O)[C@H](n5cnc6c(=O)[nH]c(N)nc65)O[C@@H]4COP(=O)(O)O[C@H]3[C@H]2O)c(=O)[nH]1 [c-di-GMP],binds but with lesser affinity,4800 nM,1200 nM,,,,,,,,
Cc1c(Cl)cccc1Nc1ncccc1C(=O)OCC(O)CO (stereo not shown) [NSC 335504],bind to hSTING,430 ± 140 nM,,~4.8 nM,"competition of the compound with 2,3cGAMP can be observed",260 ± 66 nM,large increase in ISG output,appeared to cause cell death,29000 ± 1600 nM,significantly lower,50%
